Marks after values point to notes of the source that are not given here.
How the values were obtained:
[1] = target: T1, human 5-HT2C-INI (Homo sapiens, UniProt P28335); test: Phosphoinositide hydrolysis functional assay; format: cell-based; details: for EC50 / Functional Assay (EC50) 5-HT2C: activation of phosphoinositide hydrolysis, stably expressed receptor; for Emax: value in brackets, read-out: percent Vmax relative to serotonin at 100%, 5-HT2C (converted)
T1 construct: expressed in transfected cells
T1 sequence (P28335 33-458): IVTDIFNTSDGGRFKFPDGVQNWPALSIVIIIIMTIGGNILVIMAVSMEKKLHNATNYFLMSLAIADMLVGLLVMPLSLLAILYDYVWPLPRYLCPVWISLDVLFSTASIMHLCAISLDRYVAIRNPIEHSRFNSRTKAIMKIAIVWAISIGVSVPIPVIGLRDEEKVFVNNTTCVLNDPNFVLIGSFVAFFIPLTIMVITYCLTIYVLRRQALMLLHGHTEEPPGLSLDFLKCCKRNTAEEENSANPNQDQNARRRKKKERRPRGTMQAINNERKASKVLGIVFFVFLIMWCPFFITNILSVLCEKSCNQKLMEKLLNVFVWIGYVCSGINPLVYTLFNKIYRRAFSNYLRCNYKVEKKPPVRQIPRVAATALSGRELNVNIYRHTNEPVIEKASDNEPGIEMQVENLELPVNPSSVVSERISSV
Protocol: (§1) Phosphoinositide hydrolysis assays were performed with stably (5-HT2A, 5-HT2C) or transiently (5-HT2B) expressed receptors plated in 24-well culture plates. Transfected cells were loaded with […] overnight in inositol-free DMEM without serum. The next day, phosphate accumulation assays were performed in a modified Krebs-bicarbonate buffer. Kact (nmol/L) and percent Vmax (relative to 5-HT) values were calculated (Roth, B. L., Shoham, M., Choudhary, M., Khan, N. “Identification of Conserved Aromatic Residues Essential for Agonist Binding and Second Messenger Production at 5-Hydroxytryptamine 2A Receptors” Mol. Pharmacol. 1997, 52, 259; Roth, B. L., Choudhary, M., Khan, N., Uluer, A. “High-affinity Agonist Binding is not Sufficient for Agonist Efficacy at 5-Hydroxytryptamine 2A Receptors: Evidence in Favor of a Modified Ternary Complex Model” J. Pharmacol. Exp. Ther. 1997, 280, 576).
(§2) Functional Assay (EC50) in nM. Data represent mean EC50 values for activation of phospho-inositide hydrolysis in cells expressing human 5-HT2A, 5-HT2B or 5-HT2C-INI receptors, relative to serotonin at 100%. When the standard deviation is given, N≧3.

[2] = target: 5-HT2B (Homo sapiens, UniProt P41595); test: Phosphoinositide hydrolysis functional assay; format: cell-based; design: expressed in transfected cells; details: activation of phosphoinositide hydrolysis, transiently expressed receptor
Chain of 5-HT2B (P41595 whole entry): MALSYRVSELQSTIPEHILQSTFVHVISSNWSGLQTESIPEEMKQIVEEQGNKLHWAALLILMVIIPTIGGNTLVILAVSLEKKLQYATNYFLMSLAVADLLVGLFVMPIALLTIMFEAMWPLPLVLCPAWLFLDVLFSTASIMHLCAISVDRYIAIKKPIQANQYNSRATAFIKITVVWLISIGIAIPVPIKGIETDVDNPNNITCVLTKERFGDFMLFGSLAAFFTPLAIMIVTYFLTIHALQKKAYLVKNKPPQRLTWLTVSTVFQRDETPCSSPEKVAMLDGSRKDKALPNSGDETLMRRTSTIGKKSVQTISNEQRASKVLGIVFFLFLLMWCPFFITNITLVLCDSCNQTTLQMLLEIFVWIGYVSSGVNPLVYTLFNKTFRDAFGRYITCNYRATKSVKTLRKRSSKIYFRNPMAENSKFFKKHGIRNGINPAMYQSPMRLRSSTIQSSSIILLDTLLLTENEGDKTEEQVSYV
Protocol: as §1, §2

[3] = target: 5-HT2A (Homo sapiens, UniProt P28223); test: Phosphoinositide hydrolysis functional assay; format: cell-based; design: expressed in transfected cells; details: for EC50 / Functional Assay (EC50) 5-HT2A: activation of phosphoinositide hydrolysis, stably expressed receptor; for percent Vmax relative to serotonin at 100%, 5-HT2A: value in brackets
Chain of 5-HT2A (P28223 whole entry): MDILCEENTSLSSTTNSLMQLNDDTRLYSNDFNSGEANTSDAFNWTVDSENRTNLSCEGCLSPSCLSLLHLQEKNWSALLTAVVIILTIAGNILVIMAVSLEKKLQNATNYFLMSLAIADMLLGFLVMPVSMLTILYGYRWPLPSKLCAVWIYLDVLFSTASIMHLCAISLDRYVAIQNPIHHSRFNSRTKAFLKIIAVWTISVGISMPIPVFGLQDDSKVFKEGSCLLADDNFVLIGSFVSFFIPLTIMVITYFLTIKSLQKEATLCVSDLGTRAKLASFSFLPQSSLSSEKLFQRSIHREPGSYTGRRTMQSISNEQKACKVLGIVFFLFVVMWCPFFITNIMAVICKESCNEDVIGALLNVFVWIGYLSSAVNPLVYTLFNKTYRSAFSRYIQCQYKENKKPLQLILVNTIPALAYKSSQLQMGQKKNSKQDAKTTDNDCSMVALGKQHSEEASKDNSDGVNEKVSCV
Protocol: as §1, §2

[4] = tested on: itch-associated scratching induced by serotonin; test: Animal model for OCD: serotonin-induced scratching; format: in vivo, male Swiss-Webster mice; details: for Number of Scratches as Percentage of Control: inducer Serotonin
Protocol: The 5-HT action is at least partly mediated by 5-HT2 receptors in the skin, as shown by blocking with specific antagonists (Yamaguchi, T., Nagasawa, T., Satoh, M., Kuraishi, Y. “Itch-associated Response Induced by Intradermal Serotonin Through 5-HT2 Receptors in Mice” Neurosci. Res. 1999, 35, 77). The effect of test compounds on itch-associated scratching in the mice may indicate their action on 5-HT receptors, and a study was carried out as an animal model for OCD. The subjects were male Swiss-Webster mice, 4-6 weeks old, weighing 25-45 g. Mice were housed 5 per cage, given free access to standard mouse food and water except during experiments, and maintained in a temperature-controlled room (70° F.). Serotonin and all test drugs were made up with ascorbic acid to protect against oxidation. Two mice, one a control, the other experimental, were tested each time. Each mouse was separately placed into a plexiglas box.
Mice were injected subcutaneously between the shoulder blades with either 0.1 ml of serotonin, 0.4 mg per ml in 0.15 M saline plus ascorbic acid, 1 mg/ml, or compound 48-80 (the copolymer product of N-methyl-p-methoxyphenethylamine with formaldehyde), 1.0 mg/ml in saline plus ascorbic acid. Test compounds were injected i.p. 5 minutes before the inducer. The cumulative number of scratches with a hind leg was recorded at 5 minute intervals for 30 minutes. One saline injected control and one test animal were tested together in each assay.

[5] = Appetite suppression in mice, chronic assay (body weight); format: in vivo
Protocol: Mice were injected i.p. at intervals of 2 or 3 days and weighed repeatedly (6 or 7 total injections). Controls were injected with saline. Weighing and injection were carried out between 11 AM and 1 PM.

[6] = Appetite suppression in mice, acute assay (food consumption); format: in vivo; details: for Mean food consumption 60 min. after injection: g (±SEM) Compound / Mean food consumption 90 min. after injection: g (±SEM) Compound: mice deprived of food 18 hours
Protocol: Mice were deprived of food, but not water, for 18 hours. They were then injected i.p. with test compounds dissolved in 0.9% NaCl containing 1 mg per ml ascorbic acid for protection against oxidation. Each mouse was placed in an individual cage for 30 minutes and then presented with a small petri dish containing a gel made from gelatin, powdered milk and sucrose. The dish was weighed at zero time and at 15-minute intervals for the next hour in order to quantitate food consumption. Controls were injected with saline-ascorbic acid; ±fenfluramine was used as an active control. Control consumption generally ranged from 1.5 to 2.0 grams.

[7] = 10 mg/kg i.p. 5 minutes before inducer Serotonin
[8] = 20 mg/kg i.p. at intervals of 2 or 3 days
[9] = dose cell empty (10 mg/kg printed on the Saline line above), i.p. at intervals of 2 or 3 days

CC(C)n1cc(CCN(C)C)c2c(O)ccc(F)c21
melting point: 108 to 110 °C

CCn1cc(CCN(C)C)c2c(O)cc(F)cc21 [Compound O-4284, 3-(2-Dimethylaminoethyl)-6-fluoro-1-ethyl-1H-indol-4-ol]
EC50 [1]: 0.54 nM
Emax [1]: 73%
Functional Assay (EC50) 5-HT2B [2]: Inactive
EC50 [3]: 2.9 nM
percent Vmax relative to serotonin at 100%, 5-HT2A [3]: 73%

CCCCn1cc(CCN(C)C)c2c(O)ccc(F)c21 [Compound O-4205, 3-(2-Dimethylaminoethyl)-7-fluoro-1-butyl-1H-indol-4-ol]
melting point: 87 to 90 °C
Functional Assay (EC50) 5-HT2C [1]: inactive
Functional Assay (EC50) 5-HT2B [2]: Inactive
Functional Assay (EC50) 5-HT2A [3]: Inactive

CCCn1cc(CCN(C)C)c2c(OP(=O)(O)O)ccc(F)c21 [Compound O-4309, 3-(2-Dimethylaminoethyl)-7-fluoro-1-propyl-1H-indol-4-phosphate]
Average Number of Scratches 30 min. after injection ([4]; 2.5 mg/kg i.p. 5 minutes before inducer Serotonin): 181.4
Number of Scratches as Percentage of Control ([4]; 2.5 mg/kg i.p.): 97.4%
Average Number of Scratches 30 min. after injection ([4]; 5 mg/kg i.p. 5 minutes before inducer Serotonin): 89.6
Number of Scratches as Percentage of Control ([4]; 5 mg/kg i.p.): 17.8%
Average Number of Scratches 30 min. after injection [4, 7]: 8.8
Number of Scratches as Percentage of Control ([4]; 10 mg/kg i.p.): 1.6%
Day 7 % Δ from starting weight [5, 8]: −2.3* %
Day 7 Difference within same group [5, 8]: -1.20 g
Day 14 % Δ from starting weight [5, 8]: −6.03* %
Day 14 Difference within same group [5, 8]: -3.20 g
% of Control (food consumption 60 min. after injection) ([6]; 10 mg/kg i.p.): 41%
% of Control (food consumption 90 min. after injection) ([6]; 10 mg/kg i.p.): 64%
Mean food consumption 60 min. after injection: g (±SEM) Compound ([6]; 10 mg/kg i.p.): 0.28 (.06)* g
Mean food consumption 90 min. after injection: g (±SEM) Compound ([6]; 10 mg/kg i.p.): 0.68 (0.1)* g
% of Control (food consumption 60 min. after injection) ([6]; 20 mg/kg i.p.): 9%
% of Control (food consumption 90 min. after injection) ([6]; 20 mg/kg i.p.): 18%
Mean food consumption 60 min. after injection: g (±SEM) Compound ([6]; 20 mg/kg i.p.): .07 (.02)* g
Mean food consumption 90 min. after injection: g (±SEM) Compound ([6]; 20 mg/kg i.p.): 0.22 (.05)* g

CC(C)n1cc(CCN(C)C)c2c(O)cc(F)cc21 [Compound O-4310, 3-(2-Dimethylaminoethyl)-6-fluoro-1-isopropyl-1H-indol-4-ol]
EC50 [1]: 592 nM
Emax [1]: ~50%
Functional Assay (EC50) 5-HT2B [2]: Inactive
EC50 [3]: 5 nM
percent Vmax relative to serotonin at 100%, 5-HT2A [3]: 89%

CCNC(C)Cc1cccc(C(F)(F)F)c1 (centres unmarked) [+/−Fenfluramine, Fenfluramine, reference compound]
Average Number of Scratches 30 min. after injection [4, 7]: 12.8*
Number of Scratches as Percentage of Control ([4]; 10 mg/kg i.p.): 6.5%
Day 7 % Δ from starting weight [5, 9]: −9.54* %
Day 7 Difference within same group [5, 9]: -4.74 g
Day 14 % Δ from starting weight [5, 9]: −10.7* %
Day 14 Difference within same group [5, 9]: -5.32 g
% of Control (food consumption 60 min. after injection) ([6]; 3 mg/kg i.p.): 95%
% of Control (food consumption 90 min. after injection) ([6]; 3 mg/kg i.p.): 95%
Mean food consumption 60 min. after injection: g (±SEM) Compound ([6]; 3 mg/kg i.p.): 1.2 (.12) g
Mean food consumption 90 min. after injection: g (±SEM) Compound ([6]; 3 mg/kg i.p.): 1.60 (.14) g
% of Control (food consumption 60 min. after injection) ([6]; 5 mg/kg i.p.): 61%
% of Control (food consumption 90 min. after injection) ([6]; 5 mg/kg i.p.): 67%
Mean food consumption 60 min. after injection: g (±SEM) Compound ([6]; 5 mg/kg i.p.): 0.90 (.04)* g
Mean food consumption 90 min. after injection: g (±SEM) Compound ([6]; 5 mg/kg i.p.): 1.18 (.17)* g
% of Control (food consumption 60 min. after injection) ([6]; 10 mg/kg i.p.): 30%
% of Control (food consumption 90 min. after injection) ([6]; 10 mg/kg i.p.): 35%
Mean food consumption 60 min. after injection: g (±SEM) Compound ([6]; 10 mg/kg i.p.): 0.41 (.11)* g
Mean food consumption 90 min. after injection: g (±SEM) Compound ([6]; 10 mg/kg i.p.): 0.56 (.13)* g

CN(C)CCc1cn(S(C)(=O)=O)c2c(F)ccc(O)c12
melting point: 181 to 183 °C

CN(C)CCc1cn(C)c2cc(F)cc(O)c12 [Compound O-4244, 3-(2-Dimethylaminoethyl)-6-fluoro-1-methyl-1H-indol-4-ol]
melting point: 132 to 134 °C
EC50 [1]: 0.66 nM
Emax [1]: 75%
Functional Assay (EC50) 5-HT2B [2]: Inactive
EC50 [3]: 0.55 nM
percent Vmax relative to serotonin at 100%, 5-HT2A [3]: 61%

CN(C)CCc1cn(CC2CC2)c2cc(F)cc(O)c12 [Compound O-4287, 3-(2-Dimethylaminoethyl)-6-fluoro-1-cyclopropylmethyl-1H-indol-4-ol]
melting point: 110 to 112 °C
EC50 [1]: 1160 nM
Emax [1]: 41%
Functional Assay (EC50) 5-HT2B [2]: Inactive
EC50 [3]: 3740 nM
percent Vmax relative to serotonin at 100%, 5-HT2A [3]: 63%

CCCCn1cc(CCN(C)C)c2c(O)cc(F)cc21 [Compound O-4286, 3-(2-Dimethylaminoethyl)-6-fluoro-1-butyl-1H-indol-4-ol]
melting point: 92 to 95 °C
Functional Assay (EC50) 5-HT2C [1]: inactive
Functional Assay (EC50) 5-HT2B [2]: Inactive
Functional Assay (EC50) 5-HT2A [3]: Inactive

CCCn1cc(CCN(C)C)c2c(O)cc(F)cc21 [Compound O-4285, 3-(2-Dimethylaminoethyl)-6-fluoro-1-propyl-1H-indol-4-ol]
melting point: 104 to 106 °C
EC50 [1]: 131 nM
Emax [1]: ~75%
Functional Assay (EC50) 5-HT2B [2]: Inactive
EC50 [3]: 166 nM
percent Vmax relative to serotonin at 100%, 5-HT2A [3]: 63%

CCS(=O)(=O)n1cc(CCN(C)C)c2c(O)cc(F)cc21 [Compound O-4312, 3-(2-Dimethylaminoethyl)-6-fluoro-1-ethylsulfonyl-1H-indol-4-ol]
Functional Assay (EC50) 5-HT2C [1]: inactive
Functional Assay (EC50) 5-HT2B [2]: Inactive
Functional Assay (EC50) 5-HT2A [3]: inactive

CN(C)CCc1cn(S(C)(=O)=O)c2cc(F)cc(O)c12
melting point: 184 to 186 °C

CNCCC(Oc1ccc(C(F)(F)F)cc1)c1ccccc1 (centres unmarked) [Fluoxetine, reference compound]
Average Number of Scratches 30 min. after injection [4, 7]: 15
Number of Scratches as Percentage of Control ([4]; 10 mg/kg i.p.): 4.1%

Source: patent US8071786B2, “Indole compounds useful as serotonin selective agents” (Galenea Corp., priority 2005, dated 2011)
